Laboratory results published in patent US6545131B1, “Tissue specific prodrug” (priority 1997, dated 2003).
Starred links: 1 amine or outer side, 2 acyl side, 3 side chain; linkers in the order of their positions; H or OH if unused. Residues, ends and D or L forms follow the SMILES beside them. *: point of attachment. AMC = Cc1cc(=O)oc2cc(N*)ccc12; Morpholide = C1CN(*)CCO1; CO = O=C([*:1])[*:2]

Columns and labels:
[1] = biological target: T1, PSA (prostate specific antigen) (Homo sapiens, UniProt P07288); assay: Cleavage of AMC-labelled peptide substrates by purified PSA (fluorescence of released AMC; Lineweaver-Burke kinetics); assay type: biochemical; conditions: for picomoles of peptide cleaved/min/200 picomoles protease: PSA: pH 7.8, SKLQ, KLQ, LQ in 1.4% acetonitrile/buffer, Q-AMC in 0.2% formic acid/buffer; for Kcat / Km: PSA substrate, PSA assay buffer pH 7.8, Lineweaver-Burke
T1 construct: PSA was purified from human seminal plasma; from tissue; host or cells: human seminal plasma
Procedure: (§1) The peptides discussed herein were custom synthesized by Enzyme Systems Products (Dublin, Calif.) and, after HPLC separation and purification to >95%, the molecular weights were confirmed by mass spectroscopy. All peptides had morpholinocarbonyl protecting the amino terminus and 7-amino-4-methylcoumarin (AMC) attached via an amide bond to the carboxyl group of the carboxy-terminal amino acid. Peptides were first dissolved in distilled water (5 mM) and then diluted into PSA assay buffer (50 mM Tris/0.1M NaCl pH 7.8). The glutamine-AMC peptide had the amino terminus and side chain amine unprotected and was obtained from Bachem (Torrance, Calif.).
(§2) PSA was purified from human seminal plasma as described in Christensson, et al. Eur. J. Biochem. 194:755-765, (1990). Plasmin, urokinase, tissue plasminogen activator (TPA), human plasma and porcine pancreatic kallikrein and a 1-antichymotrypsin were obtained from Calbiochem (San Diego, Calif.). All other proteases were obtained from Sigma Chemical Co. (St. Louis, Mo.). Mouse serum was obtained from East Acres Biologicals (South Bridge, Mass.). Goat and calf sera were obtained from Gibco BRL (Grand Island, N.Y.). Rat serum was obtained in-house from sacrificed animals. Human serum was obtained from volunteers.
(§3) Cleavage was studied by measuring fluorescence change secondary to AMC release. Fluorescence detection was carried out with a Fluoroskan II 96 well fluorometric plate reader (ICN Biomedicals, Costa Mesa, Calif.), with excitation wavelength 355 nm and emission wavelength 460 nm. Data were collected and analyzed using Deltasoft III software (Biometallics, Princeton, N.J.). All reactions were performed at room temperature by the addition of substrate and proteases into PSA buffer, described below, in a final volume of 200 μL. The results were determined from the initial linear increase of fluorescence and were expressed as the picomoles of AMC released per minute based upon comparison to a standard curve of the fluorescence of known amounts of AMC (i.e., fluorescence was linear form 20 to 300 picomoles of AMC). The data were analyzed by Lineweaver-Burke reciprocal plots to determine the Michaelis-Menten constant (i.e., Km) expressed as the amount of substrate needed to saturate half of the enzyme and the catalytic rate constant (i.e., kcat) expressed as the amount of substrate converted to product per time per amount of enzyme.
(§4) Each assay contains 200 picomoles of the particular protease and 0.2 mM concentration of the particular substrate (i.e., 40,000 picomoles/200 μL of assay volume). The amino acid sequences expressed in one letter amino acid code represent the following amino acid sequences in the three letter amino acid code: EHSSKLQ (Glu-His-Ser-Ser-Lys-Leu-Gln; SEQ ID NO:10), QNKISYQ (Gln-Asn-Lys-Ile-Ser-Tyr-Gln; SEQ ID NO:11), ENKISYQ (Glu-Asn-Lys-Ile-Ser-Tyr-Gln; SEQ ID NO:12), and ATKSKQH (Ala-Thr-Lys-Ser-Lys-Gln-His; SEQ ID NO:13). Determinations listed in the table were carried out with substrates at 0.2 mM concentration in the PSA assay buffer (50 mM Tris/0.1M NaCl pH 7.8). The entry “UD” stands for “undetectable” and means that at most, 0.1 pmole of substrate cleavage per minute per 200 pmole protease took place. Asterisks represent experiments not performed. Abbreviations are as follows: PSA (prostate specific antigen), Chymo (chymotrypsin), Urokin (urokinase), TPA (tissue plasminogen activator), Thromb (thrombin), Kallik (human kallikrein, hK1).
The data in Table 2 are the results of kinetic experiments with the peptide substrates used in Example 1. Experimental details are found in Example 1.
The amino acid sequences expressed in one letter amino acid code represent the following amino acid sequences in the three letter amino acid code: EHSSKLQ (Glu-His-Ser-Ser-Lys-Leu-Gln; SEQ ID NO:10), HSSKLQ (His-Ser-Ser-Lys-Leu-Gln; SEQ ID NO:7), SKLQ (Ser-Lys-Leu-Gln; SEQ ID NO:1), and ATKSKQH (Ala-Thr-Lys-Ser-Lys-Gln-His; SEQ ID NO:13). […]

Elastase = assay: Peptide-AMC cleavage by purified extracellular protease; assay type: biochemical; conditions: 0.2 mM substrate, PSA assay buffer pH 7.8
Procedure: as §1, §2, §3, §4

Plasmin = biological target: T2, Plasmin (Homo sapiens, UniProt P00747); assay: as above; assay type: biochemical; conditions: 0.2 mM substrate, PSA assay buffer pH 7.8
T2 construct: purchased Calbiochem
Procedure: as §1, §2, §3, §4

Trypsin = assay: as above; assay type: biochemical; conditions: 0.2 mM substrate, PSA assay buffer pH 7.8
Procedure: as §1, §2, §3, §4

chymotrypsin = biological target: T3, chymotrypsin (Bos taurus, UniProt P00766); assay: as above; assay type: biochemical; conditions: 0.2 mM substrate, PSA assay buffer pH 7.8
T3 construct: purchased Sigma Chemical Co
Procedure: as §1, §2, §3, §4

human kallikrein, hK1 = assay: as above; assay type: biochemical; conditions: 0.2 mM substrate, PSA assay buffer pH 7.8
Procedure: as §1, §2, §3, §4

thrombin = biological target: T4, thrombin (Homo sapiens, UniProt P00734); assay: as above; assay type: biochemical; conditions: 0.2 mM substrate, PSA assay buffer pH 7.8
T4 construct: purchased Sigma Chemical Co
Procedure: as §1, §2, §3, §4

[2] = biological target: T5, tissue plasminogen activator (TPA) (Homo sapiens, UniProt P00750); assay: as above; assay type: biochemical; conditions: 0.2 mM substrate, PSA assay buffer pH 7.8
T5 construct: purchased Calbiochem
Procedure: as §1, §2, §3, §4

urokinase = biological target: T6, urokinase (Homo sapiens, UniProt P00749); assay: as above; assay type: biochemical; conditions: 0.2 mM substrate, PSA assay buffer pH 7.8
T6 construct: purchased Calbiochem
Procedure: as §1, §2, §3, §4

[3] = Stability of PSA substrates in serum (AMC release); assay type: in vitro ADME; conditions: 0.2 mM substrate
Excerpt: as §2, §3
Because the prodrug can be given systemically via the blood, it is useful to determine the stability of the substrates in sera from a variety of species. The substrates and experimental details are found as described in Example 1.
The amino acid sequences expressed in one letter amino acid code represent the following amino acid sequences in the three letter amino acid code: EHSSKLQ (Glu-His-Ser-Ser-Lys-Leu-Gln; SEQ ID NO:10), QNKISYQ (Gln-Asn-Lys-Ile-Ser-Tyr-Gln; SEQ ID NO:11), ENKISYQ (Glu-Asn-Lys-Ile-Ser-Tyr-Gln; SEQ ID NO:12) and ATKSKQH (Ala-Thr-Lys-Ser-Lys-Gln-His; SEQ ID NO:13). Determinations listed in the table were carried out with substrates at 0.2 mM concentration in the PSA assay buffer (50 mM Tris/0.1M NaCl pH 7.8). AMC is 7-amino-4-methylcoumarin. The human serum used was 100% for each assay. The entry “UD” stands for “undetectable”, and means that not more than 0.01 picomole of substrate per minute was cleaved.

Cathepsin B = biological target: T7, Cathepsin B (Homo sapiens, UniProt P07858); assay: PSA substrate cleavage by purified intracellular protease; assay type: biochemical; conditions: 0.2 mM substrate, pH 7.8; SKLQ, KLQ, LQ in 1.4% acetonitrile/buffer, Q-AMC in 0.2% formic acid/buffer
T7 construct: purchased Sigma Chemical Co
Procedure: as §3
(§5) A family of peptide substrates based upon the EHSSKLQ (SEQ ID NO:10) sequence was assayed for activity for the intracellular proteases, and the results given in Table 4.
(§6) The amino acid sequences expressed in one letter amino acid code represent the following amino acid sequences in the three letter amino acid code: EHSSKLQ (Glu-His-Ser-Ser-Lys-Leu-Gln; SEQ ID NO:10), The shorter sequences are formed by deleting amino acids from the amino terminal side of the sequence. Determinations listed in the table were carried out with substrates at 0.2 mM concentration in the PSA assay buffer (50 mM Tris/0.1M NaCl pH 7.8), except SKLQ (SEQ ID NO:1), KLQ and LQ, which were carried out in 1.4% acetonitrile/buffer and Q-AMC which was carried out in 0.2% formic acid/buffer, at pH 7.8. The entry “UD” stands for “undetectable” and means that at most, 0.1 pmole of substrate cleavage per minute per 200 pmole protease took place. Asterisks represent experiments not performed. Abbreviations are as follows: PSA (prostate specific antigen), Cath B, C, D (Cathepsins, B, C, D), Esterase (porcine liver esterase).

Cathepsin C = biological target: T8, Cathepsin C (Homo sapiens, UniProt P53634); assay: as above; assay type: biochemical; conditions: 0.2 mM substrate, pH 7.8; SKLQ, KLQ, LQ in 1.4% acetonitrile/buffer, Q-AMC in 0.2% formic acid/buffer
T8 construct: purchased Sigma Chemical Co
Procedure: as §3, §5, §6

Cathepsin D = biological target: T9, Cathepsin D (Homo sapiens, UniProt P07339); assay: as above; assay type: biochemical; conditions: 0.2 mM substrate, pH 7.8; SKLQ, KLQ, LQ in 1.4% acetonitrile/buffer, Q-AMC in 0.2% formic acid/buffer
T9 construct: purchased Sigma Chemical Co
Procedure: as §3, §5, §6

porcine liver esterase = assay: as above; assay type: biochemical; conditions: 0.2 mM substrate, pH 7.8; SKLQ, KLQ, LQ in 1.4% acetonitrile/buffer, Q-AMC in 0.2% formic acid/buffer
Procedure: as §3, §5, §6

T1 sequence (P07288 25-261): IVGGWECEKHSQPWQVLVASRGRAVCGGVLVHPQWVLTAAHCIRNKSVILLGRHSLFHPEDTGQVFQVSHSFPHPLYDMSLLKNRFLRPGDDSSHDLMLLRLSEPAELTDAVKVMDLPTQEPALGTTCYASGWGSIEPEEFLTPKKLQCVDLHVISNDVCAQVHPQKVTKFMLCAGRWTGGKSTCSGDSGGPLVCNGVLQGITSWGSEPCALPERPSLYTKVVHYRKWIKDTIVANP
T8 sequence (P53634 25-463): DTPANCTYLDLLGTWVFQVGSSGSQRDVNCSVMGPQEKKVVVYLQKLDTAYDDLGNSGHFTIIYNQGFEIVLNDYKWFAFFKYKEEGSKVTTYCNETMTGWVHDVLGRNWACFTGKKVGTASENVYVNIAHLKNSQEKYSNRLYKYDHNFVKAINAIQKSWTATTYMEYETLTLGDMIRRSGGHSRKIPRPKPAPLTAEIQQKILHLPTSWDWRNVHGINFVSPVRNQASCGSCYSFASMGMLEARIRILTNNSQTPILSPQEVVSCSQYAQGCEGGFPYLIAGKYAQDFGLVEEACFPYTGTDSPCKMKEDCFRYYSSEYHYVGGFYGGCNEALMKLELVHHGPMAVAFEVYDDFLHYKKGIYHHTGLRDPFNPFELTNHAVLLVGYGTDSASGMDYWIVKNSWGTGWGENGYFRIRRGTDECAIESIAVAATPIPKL
T9 sequence (P07339 65-412): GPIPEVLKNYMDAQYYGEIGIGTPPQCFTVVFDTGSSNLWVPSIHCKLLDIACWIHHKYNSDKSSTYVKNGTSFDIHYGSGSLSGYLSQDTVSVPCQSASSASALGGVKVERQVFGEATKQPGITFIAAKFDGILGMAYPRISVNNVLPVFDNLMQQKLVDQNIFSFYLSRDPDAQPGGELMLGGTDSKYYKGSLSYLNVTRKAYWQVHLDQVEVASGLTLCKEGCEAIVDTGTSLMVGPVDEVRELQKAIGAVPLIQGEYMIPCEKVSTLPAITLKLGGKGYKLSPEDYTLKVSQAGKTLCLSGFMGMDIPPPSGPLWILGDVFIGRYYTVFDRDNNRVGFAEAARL
T2 sequence (P00747 581-810 limits assumed, species assumed): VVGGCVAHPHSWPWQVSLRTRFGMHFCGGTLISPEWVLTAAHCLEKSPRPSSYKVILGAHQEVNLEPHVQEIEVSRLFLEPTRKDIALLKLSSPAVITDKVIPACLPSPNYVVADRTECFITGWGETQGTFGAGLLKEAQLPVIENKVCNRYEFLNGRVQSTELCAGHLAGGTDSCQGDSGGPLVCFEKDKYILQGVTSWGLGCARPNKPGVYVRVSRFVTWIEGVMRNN
T2 sequence (P00747 97-580 partner limits assumed, species assumed): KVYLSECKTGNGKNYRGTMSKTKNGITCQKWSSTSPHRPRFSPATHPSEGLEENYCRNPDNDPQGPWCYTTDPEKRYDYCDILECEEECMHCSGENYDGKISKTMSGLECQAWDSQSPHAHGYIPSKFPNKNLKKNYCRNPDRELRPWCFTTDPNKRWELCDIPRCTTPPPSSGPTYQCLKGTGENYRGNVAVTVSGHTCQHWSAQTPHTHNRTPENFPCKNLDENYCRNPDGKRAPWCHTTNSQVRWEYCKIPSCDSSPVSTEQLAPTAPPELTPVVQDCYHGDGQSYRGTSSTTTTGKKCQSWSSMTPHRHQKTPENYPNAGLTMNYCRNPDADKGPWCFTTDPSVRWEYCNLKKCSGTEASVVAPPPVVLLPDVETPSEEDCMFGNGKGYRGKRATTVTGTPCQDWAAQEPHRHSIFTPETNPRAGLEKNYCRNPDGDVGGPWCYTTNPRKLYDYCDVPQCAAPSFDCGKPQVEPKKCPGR
T5 sequence (P00750 36-562, species assumed): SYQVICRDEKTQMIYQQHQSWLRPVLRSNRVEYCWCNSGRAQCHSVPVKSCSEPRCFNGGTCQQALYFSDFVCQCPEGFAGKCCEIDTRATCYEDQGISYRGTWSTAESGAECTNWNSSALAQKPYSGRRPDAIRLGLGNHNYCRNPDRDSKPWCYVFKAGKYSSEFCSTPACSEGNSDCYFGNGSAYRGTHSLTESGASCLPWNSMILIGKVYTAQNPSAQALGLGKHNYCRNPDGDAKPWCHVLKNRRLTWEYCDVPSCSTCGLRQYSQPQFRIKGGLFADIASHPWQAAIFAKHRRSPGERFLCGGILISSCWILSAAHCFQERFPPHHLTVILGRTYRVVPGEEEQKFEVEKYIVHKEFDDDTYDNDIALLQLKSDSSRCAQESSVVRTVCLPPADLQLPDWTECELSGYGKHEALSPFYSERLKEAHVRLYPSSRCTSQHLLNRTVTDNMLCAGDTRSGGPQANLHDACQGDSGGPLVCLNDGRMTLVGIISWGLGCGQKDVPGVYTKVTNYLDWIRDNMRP

SMILES: CC[C@H](C)[C@H](NC(=O)[C@H](CCCCN)NC(=O)[C@H](CC(N)=O)NC(=O)[C@H](CCC(=O)O)NC(=O)N1CCOCC1)C(=O)N[C@@H](CO)C(=O)N[C@@H](Cc1ccc(O)cc1)C(=O)N[C@@H](CCC(N)=O)C(=O)Nc1ccc2c(C)cc(=O)oc2c1 [ENKISYQ, Glu-Asn-Lys-Ile-Ser-Tyr-Gln] ({Morpholide-CO}-ENKISYQ-{AMC})
- Picomoles of substrate cleaved/minute/200 pmoles of indicated protease: PSA ([1]; 0.2 mM substrate, PSA assay buffer pH 7.8, room temperature): 14.4 picomoles/minute/200 pmoles pr
- Picomoles of substrate cleaved/minute/200 pmoles of indicated protease: Elastase (Elastase): 2.6 picomoles/minute/200 pmoles pr
- Picomoles of substrate cleaved/minute/200 pmoles of indicated protease: Plasmin (Plasmin): 0.6 picomoles/minute/200 pmoles pr
- Picomoles of substrate cleaved/minute/200 pmoles of indicated protease: Trypsin (Trypsin): 1.8 picomoles/minute/200 pmoles pr
- Picomoles of substrate cleaved/minute/200 pmoles of indicated protease: Chymo (chymotrypsin): 3.6 picomoles/minute/200 pmoles pr
- Picomoles of substrate cleaved/minute/200 pmoles of indicated protease: Kallik (human kallikrein, hK1): UD (at most, 0.1 pmole of substrate cleavage per minute per 200 pmole protease took place)
- Picomoles of substrate cleaved/minute/200 pmoles of indicated protease: Thromb (thrombin): 0.3 picomoles/minute/200 pmoles pr
- Picomoles of substrate cleaved/minute/200 pmoles of indicated protease: TPA [2]: .04 picomoles/minute/200 pmoles pr
- Picomoles of substrate cleaved/minute/200 pmoles of indicated protease: Urokin (urokinase): UD (at most, 0.1 pmole of substrate cleavage per minute per 200 pmole protease took place)
- picomles AMC released/minute: Calf [3]: UD (not more than 0.01 picomole of substrate per minute was cleaved)
- picomles AMC released/minute: Fetal Calf [3]: 9.59 picomoles/minute
- picomles AMC released/minute: Goat [3]: 3.18 picomoles/minute
- picomles AMC released/minute: Mouse [3]: 3.71 picomoles/minute
- picomles AMC released/minute: Rat [3]: 11.2 picomoles/minute
- picomles AMC released/minute: Human ([3]; human serum 100%): 1.27 picomoles/minute

SMILES: Cc1cc(=O)oc2cc(NC(=O)[C@H](CCC(N)=O)NC(=O)[C@H](CC(C)C)NC(=O)[C@H](CCCCN)NC(=O)[C@H](CO)NC(=O)[C@H](CO)NC(=O)[C@H](Cc3c[nH]cn3)NC(=O)N3CCOCC3)ccc12 [HSSKLQ, His-Ser-Ser-Lys-Leu-Gln] ({Morpholide-CO}-HSSKLQ-{AMC})
- picomoles of peptide cleaved/min/200 picomoles protease: PSA ([1]; 0.2 mM substrate): 62.7 picomoles/min/200 picomoles pr
- Kcat [1]: 0.011 s⁻¹
- Km [1]: 470 µM
- picomoles of peptide cleaved/min/200 picomoles protease: Cath B (Cathepsin B): 17.3 picomoles/min/200 picomoles pr
- picomoles of peptide cleaved/min/200 picomoles protease: Cath C (Cathepsin C): UD (at most, 0.1 pmole of substrate cleavage per minute per 200 pmole protease took place)
- picomoles of peptide cleaved/min/200 picomoles protease: Cath D (Cathepsin D): 3.8 picomoles/min/200 picomoles pr
- picomoles of peptide cleaved/min/200 picomoles protease: Esterase (porcine liver esterase): UD (at most, 0.1 pmole of substrate cleavage per minute per 200 pmole protease took place)

SMILES: Cc1cc(=O)oc2cc(NC(=O)[C@H](CCC(N)=O)NC(=O)[C@H](CC(C)C)NC(=O)[C@H](CCCCN)NC(=O)[C@H](CO)NC(=O)N3CCOCC3)ccc12 [SKLQ, Ser-Lys-Leu-Gln] ({Morpholide-CO}-SKLQ-{AMC})
- picomoles of peptide cleaved/min/200 picomoles protease: PSA ([1]; 0.2 mM substrate): 29.6 picomoles/min/200 picomoles pr
- Kcat [1]: 0.020 s⁻¹
- Km [1]: 813 µM
- picomoles of peptide cleaved/min/200 picomoles protease: Cath B (Cathepsin B): 31.2 picomoles/min/200 picomoles pr
- picomoles of peptide cleaved/min/200 picomoles protease: Cath C (Cathepsin C): UD (at most, 0.1 pmole of substrate cleavage per minute per 200 pmole protease took place)
- picomoles of peptide cleaved/min/200 picomoles protease: Cath D (Cathepsin D): 6.4 picomoles/min/200 picomoles pr
- picomoles of peptide cleaved/min/200 picomoles protease: Esterase (porcine liver esterase): UD (at most, 0.1 pmole of substrate cleavage per minute per 200 pmole protease took place)
